Laboratory results reported in US8946394B2, “Conjugate for photodynamic diagnosis or therapy and method for preparing same” (Panaxem Co., Ltd., priority 2010, dated 2015).

System: HeLa cells
Assay: Cytotoxicity test (MTT) with and without near infrared irradiation
Format: cell-based
Method: Cytotoxicity test was conducted on the nano-microsphere according to the present invention prepared from Example 1. HeLa cells as cancer cells were incubated in the RPMI 1640 culture medium containing 10% FBS and 1% penicillin in the presence of 5% CO2 at a temperature of 37° C. Then, for the cytotoxicity test, the incubated HeLa cells were dispensed on a 96-well plate at a cell number of 1×10^4 and then incubated for 24 hours. Next day, the nano-microspheres (nano-microspheres added with 1.25 mg of a photosensitizer) according to the present invention were diluted by concentrations, respectively, and then the diluted concentrations were put into each well at 100 μl.
After that, the cells were further incubated for 12 hours so that the nano-microspheres can act on the cells, and then near infrared wavelength light (670 nm) was irradiated at an amount of 1.2 J/cm^2. […]
Lastly, 20 μl of MTT reagent (3-(4,5-dimethylthiazol-2yl)-2,5-diphenyl-2H-tetrazolium bromide) was added to the cells after incubation was completed, followed by again incubating for 3˜4 hours. […] After that, the ELIZA analyzer was used to measure absorbance at 595 nm and thus comparison of the amount of formazan formed was conducted, to thereby confirm cell viability (%) and cytotoxicity of the conjugate (FIGS. 15 and 16).

CCCC(C)(C)c1cc(Oc2ccc3c(c2)/C2=N/c4c5ccc(Oc6cc(C(C)(C)CCC)c(OC)cc6C(C)(C)CCC)cc5c5[n]4[Zn][n]4/c(c6ccc(Oc7cc(C(C)(C)CCC)c(OC)cc7C(C)(C)CCC)cc6/c4=N/C3=N2)=N\C2=NC(=N\5)/c3ccc(Oc4ccc(C(=O)O)cc4)cc32)c(C(C)(C)CCC)cc1OC [Zn-Pc-COOH]
apoptosis / cell viability (%) (near infrared ray (670 nm, 1.2 J/cm^2) irradiated): apoptosis occurred in proportional to the time for irradiation | apoptosis / cell viability (%) (near infrared ray not irradiated): apoptosis did not occur
